# Paper PMC5947712, “High‐Throughput Kinetic Analysis for Target‐Directed Covalent Ligand Discovery” (Angewandte Chemie (International Ed. in English), 2018)
# “And” between values parts separate entries of the source, which are not always exact repeats. Identical values can stand only once.
# Key:
# Cdk1‐cyclin A2 = Cdk1‐cyclin A2 (Homo sapiens, UniProt P06493); experiment: In vitro kinase activity after 24 h incubation of active Cdk1:cyclin A2 with acrylamides; type: biochemical; conditions: for inhibition at 500 µM: 0.5 mM, 24 hours incubation, n=3, read-out: % inhibition ± SEM Cdk1
# Cdk1‐cyclin A2, sequence (P06493 whole entry): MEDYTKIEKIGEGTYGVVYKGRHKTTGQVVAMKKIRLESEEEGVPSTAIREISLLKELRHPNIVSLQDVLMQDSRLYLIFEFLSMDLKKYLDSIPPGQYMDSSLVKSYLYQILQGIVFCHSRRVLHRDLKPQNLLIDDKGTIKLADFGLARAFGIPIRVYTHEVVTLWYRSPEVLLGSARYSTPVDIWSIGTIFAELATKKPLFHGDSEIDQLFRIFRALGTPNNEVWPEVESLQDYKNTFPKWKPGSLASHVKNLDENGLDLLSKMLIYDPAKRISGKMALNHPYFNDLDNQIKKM
# Cdk1‐cyclin A2, sequence (P20248 whole entry partner): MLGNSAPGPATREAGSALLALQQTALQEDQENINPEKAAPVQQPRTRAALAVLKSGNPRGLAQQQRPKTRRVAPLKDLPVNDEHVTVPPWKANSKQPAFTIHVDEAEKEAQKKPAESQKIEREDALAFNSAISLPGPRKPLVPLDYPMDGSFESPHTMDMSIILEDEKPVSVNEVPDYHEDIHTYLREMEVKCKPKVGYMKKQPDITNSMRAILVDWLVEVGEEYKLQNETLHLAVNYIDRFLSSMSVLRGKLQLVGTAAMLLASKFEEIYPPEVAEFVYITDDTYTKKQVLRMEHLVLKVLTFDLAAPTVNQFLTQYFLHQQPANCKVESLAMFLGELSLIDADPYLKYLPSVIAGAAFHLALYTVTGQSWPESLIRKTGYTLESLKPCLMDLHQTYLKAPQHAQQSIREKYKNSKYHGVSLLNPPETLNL
# Method: Figure 6 a) Sequence alignment of Cdk family. Cys177 is highlighted in yellow. b) Published selectivity profiles of selected Cdk2 inhibitors.29 c) Active Cdk1/Cdk2:cyclin A2 was incubated with acrylamides 1 and 2 (0.5 mM) for 24 hours and then their in vitro kinase activity was measured (n=3). […]
# Tables! 2R6.! Molecular! replacement! was! conducted! on! all! data! sets! using!Phaser[14]/MOLREP[15]!against! apoRCdk2! (PDB:!
# 4EK3)!and!the! model! was! iteratively! refined! using! Phenix.Refine[16]!with! manual! modelling! and! adjustments! carried! out! in!
# COOT[17].! Descriptions! of! the! ligands! and! links! were! generated! with! JLigand[18]!and! refined! with! Refmac[19].! Electron! density! […]
# Cdk2! (1! mg)! was! sequentially! incubated! with! aliquots! of! CAK1! (3!×!0.05! mg)! at! r.t.! for! 4! hours! at! a! time! in! 1.5! mL! of! a! 30! mM!
# Tris/HCl! buffer! (pH! 7.5)! containing! 10! mM! MgCl2,! 10! mM! ATP! and! 3! mM! DTT.! As! CAK1! appeared! to! become! rapidly! inactiR
# vated! in! the! presence! of! pCdk2,! three! repetitions! were! required! to! drive! the! reaction! to! completion.! The! resulting! solution! was!
# incubated!with!50!µL!of!glutathioneRSepharose!beads!and!filtered!to!remove!remaining!CAK1.!
# Phosphorylation! of! T160! results! in! increased! mobility! of! Cdk2! during! gel! electrophoresis! and! the! reaction! was! monitored! by!
# SDSRpage.! The! site! of! modification! was! subsequently! verified! by! western! blot! using! an! antiRT160! antibody! (Cell! Signalling!
# 2561)!and!complete!monoRmodification!was!confirmed!by!intact!protein!mass!spectrometry.! […]
# initiated!by!addition!of!0.5!mM!ATP!and!0.24!mM!substrate!peptide!([…])!and!the!absorbance!at!340!nm!was!moniR […]
# plate! reader! […]
# was!measured!from!the!gradient!during!the!linear!phase!of!product!accumulation.!! […]
# ments,! the! wavelength! was! adjusted! to! 230! nm! and! elipticity! was! measured! at! […]
# repeats!of!10!s!integrations!per!temperature.!The!meltRtemperature!(Tm)!was!determined!using!Prism!6.0!by!fitting!a!sigmoidal! […]
# The! cell! lysates! were!diluted! to! […] RIPA! lysis! buffer,! as! quantified! by! the! […]
# Cdk2(WT) = Cdk2(WT) (Homo sapiens, UniProt P24941); experiment: qIT thiol consumption assay with Cdk2(WT) (Cys177); type: binding; parameters: made in house; host or cells: E. coli Tuner(DE3); conditions: for k Cdk2(WT) (pseudo-first-order rate constant): compound 0.5 mM, Cdk2(WT) 5 μM, TCEP-agarose 2 % w/v
SMILES,inhibition at 500 µM (Cdk1‐cyclin A2),inhibition of Cdk1‐cyclin A2 in vitro (in words) (Cdk1‐cyclin A2; prolonged exposure (24 hours)),k Cdk2(WT) (pseudo-first-order rate constant) (Cdk2(WT)),REF Cdk2(WT) (rate enhancement factor = k protein/k GSH) (Cdk2(WT))
C=CC(=O)N1CCN(C(=O)OC(C)(C)C)c2ccccc21 [Acrylamide 1],2 ± 10%,failed to inhibit,0.204 h⁻¹,5.0
C=CC(=O)N1CCN(C(=O)OC)c2ccccc21 [Acrylamide 2],-2 ± 8%,–,0.233 h⁻¹,2.6 and 2.63
